pIC50: −log10 of the molar value.
Each molecule was assayed against T1, human 11β-HSD1 (Homo sapiens, UniProt P28845) (assay: Inhibition of a microsomal preparation of 11β-HSD1, SPA (Biological Test Example 2)). Details: read-out: Biological Test Example 2 (IC50 class).
Format: biochemical
Design: expressed in transfected cells; host or cells: CHO cells (microsomes)
Outline: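 Microsomes from CHO cells overexpressing human 11β-HSD1 (10-20 μg/ml total protein) added after 10 min compound pre-incubation, then 90 min at room temperature. Stopped with 18β-glycyrrhetinic acid (10 nM), protein A SPA beads and anti-cortisol antibody; [3H]cortisol measured by SPA after 120 min.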
Target sequence in this assay (P28845 whole entry): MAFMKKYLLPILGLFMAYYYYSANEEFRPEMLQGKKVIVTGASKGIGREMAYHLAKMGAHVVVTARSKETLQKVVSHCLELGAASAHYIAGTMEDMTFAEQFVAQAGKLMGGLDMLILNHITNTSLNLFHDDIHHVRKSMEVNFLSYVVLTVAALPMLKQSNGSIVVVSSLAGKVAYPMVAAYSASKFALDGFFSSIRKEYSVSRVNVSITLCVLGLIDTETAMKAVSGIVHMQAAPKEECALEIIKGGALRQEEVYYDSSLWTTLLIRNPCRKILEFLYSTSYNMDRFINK

Molecule | pIC50
CC(=O)N1CC2(CCN(C(=O)OC3C4CC5CC(C4)CC3C5)CC2)c2ccccc21 (stereo not drawn) [Example 23, 2-Adamantyl 1-acetylspiro[indoline-3,4′-piperidine]-1′-carboxylate] | > 7.30
O=C(NC1C2CC3CC(C2)CC1C3)N1CCC2(CC1)CNCc1ccccc12 (stereo not drawn) [Example 30, N-(2-Adamantyl)-2,3-dihydro-1H-spiro[isoquinoline-4,4′-piperidine]-1′-carboxamide] | > 7.30
CC(=O)N1Cc2ccccc2C2(CCN(C(=O)NC3C4CC5CC(C4)CC3C5)CC2)C1 (stereo not drawn) [Example 31, 2-Acetyl-N-(2-adamantyl)-2,3-dihydro-1H-spiro[isoquinoline-4,4′-piperidine]-1′-carboxamide] | > 7.30
O=C(OC1C2CC3CC(C2)CC1C3)N1CCC2(CC1)OCc1ccccc12 (stereo not drawn) [Example 84, 2-Adamantyl 3H-spiro[isobenzofuran-1,4′-piperidine]-1′-carboxylate] | > 7.30
O=C(O)CCCC(=O)N1Cc2ccccc2C2(CCN(C(=O)NC3C4CC5CC(C4)CC3C5)CC2)C1 (stereo not drawn) [Example 95, 5-(1′(2-Adamantylcarbamoyl)-1H-spiro[isoquinoline-4,4′-piperidine]-2(3H)-yl)-5-oxopentanoic acid] | > 7.30

The molecules below were run against T1, human 11β-HSD1 (assay: Scintillation Proximity Assay: inhibition of purified 11β-HSD1 (Biological Test Example 1)). Details: purified recombinant 11β-HSD1, SPA; read-out: Biological Test Example 1 (IC50 class).
Format: biochemical
Design: made in house; host or cells: E. coli
Method: The inhibition of purified 11β-HSD1 by compounds of Formula I or I* is measured using a Scintillation Proximity Assay. All reactions are carried out at room temperature in 96 well flexible Microbeta reaction plates. First, 1 μL of a 0.1 mM solution of a compound of Formula I or I* is mixed in DMSO diluted in half-log increments (8 points) starting at 1 μM final concentration. To this dot is added 50 μL of substrate solution (50 mM HEPES, pH 7.4, 100 mM KCl, 5 mM NaCl, 2 mM MgCl2 containing 20 μM ^3H cortisone, 1 mM NADPH). […] The reaction is then incubated for 90 minutes, and stopped by adding 50 μl of SPA bead mix (18-β-glycyrrhetinic acid, 10 μM final, 5 mg/ml protein A coated YSi SPA beads, and 1 μg/ml α-cortisol antibody (East Coast Biologics)). The plate is shaken for 120 minutes, and the radioactivity corresponding to ^3H cortisol is measured on a Wallac Microbeta.
Target sequence in this assay (P28845 whole entry, species assumed): as the sequence (P28845 whole entry) above

Molecule | pIC50
CNC(=O)CC1CC2(CCN(C(=O)OC3C4CC5CC(C4)CC3C5)CC2)c2ccccc21 (racemic) [Example 26, (±)-2-Adamantyl 3-(2-(methylamino)-2-oxoethyl)-2,3-dihydrospiro[indene-1,4′-piperidine]-1′-carboxylate] | > 7.30
CC(C)(C)OC(=O)N1CC2(CCN(C(=O)NC3C4CC5CC(C4)CC3C5)CC2)c2ccccc21 (stereo not drawn) [Example 1, Tert-butyl 1′-((2-adamantyl)carbamoyl)spiro[indoline-3,4′-piperidine]-1-carboxylate] | > 7.30
O=C(NC1C2CC3CC(C2)CC1C3)N1CCC2(CC1)CNc1ccccc12 (stereo not drawn) [Example 2, N-(2-Adamantyl)spiro[indoline-3,4′-piperidine]-1′-carboxamide] | > 7.30
CC(=O)N1CC2(CCN(C(=O)NC3C4CC5CC(C4)CC3C5)CC2)c2ccccc21 (stereo not drawn) [Example 7, 1-Acetyl-N-(2-adamantyl)spiro[indoline-3,4′-piperidine]-1′-carboxamide] | > 7.30
CC(C)(C)OC(=O)N1CCC2(CCN(C(=O)NC3C4CC5CC(C4)CC3C5)CC2)CC1 (stereo not drawn) [Example 8] | 6.00 to 7.30
CC(C)(C)OC(=O)N1CCC2(CCN(C(=O)NC3C4CC5CC(C4)CC3C5)CC2)C1 (stereo not drawn) [Example 9, tert-Butyl 8-((2-adamantyl)carbamoyl)-2,8-diazaspiro[4.5]decane-2-carboxylate] | 6.00 to 7.30
O=C(O)C1=CC2(CCN(C(=O)NC3C4CC5CC(C4)CC3C5)CC2)c2ccccc21 (stereo not drawn) [Example 11, 1′-((2-Adamantyl)carbamoyl)spiro[indene-1,4′-piperidine]-3-carboxylic acid] | > 7.30
CCOC(=O)C1=CC2(CCN(C(=O)NC3C4CC5CC(C4)CC3C5)CC2)c2ccccc21 (stereo not drawn) [Example 15, Ethyl 1′-((2-adamantyl)carbamoyl)spiro[indene-1,4′-piperidine]-3-carboxylate] | > 7.30
CS(=O)(=O)N1CC2(CCN(C(=O)NC3C4CC5CC(C4)CC3C5)CC2)c2ccccc21 (stereo not drawn) [Example 19, N-(2-Adamantyl)-1-(methylsulfonyl)spiro[indoline-3,4′-piperidine]-1′-carboxamide] | > 7.30
O=C(OC1C2CC3CC(C2)CC1C3)N1CCC2(CC1)CNc1ccccc12 (stereo not drawn) [Example 20, 2-Adamantyl spiro[indoline-3,4′-piperidine]-1′-carboxylate] | > 7.30
O=C(OC1C2CC3CC(C2)CC1C3)N1CCC2(CC1)CNc1ccc(F)cc12 (stereo not drawn) [Example 21, 2-Adamantyl 5-fluorospiro[indoline-3,4′-piperidine]-1′-carboxylate] | > 7.30
Cc1ccc2c(c1)C1(CCN(C(=O)OC3C4CC5CC(C4)CC3C5)CC1)CN2 (stereo not drawn) [Example 22, 2-Adamantyl 5-methylspiro[indoline-3,4′-piperidine]-1′-carboxylate] | > 7.30
CC(=O)N1CC2(CCN(C(=O)OC3C4CC5CC(C4)CC3C5)CC2)c2ccccc21 (stereo not drawn) [Example 23, 2-Adamantyl 1-acetylspiro[indoline-3,4′-piperidine]-1′-carboxylate] | > 7.30
O=C(O)CC1CC2(CCN(C(=O)OC3C4CC5CC(C4)CC3C5)CC2)c2ccccc21 (stereo not drawn) [Example 25, 2-(1′-((2-Adamantyloxy)carbonyl)-2,3-dihydrospiro[indene-1,4′-piperidine]-3-yl)acetic acid] | > 7.30
CC(C)(C)OC(=O)N1Cc2ccccc2C2(CCN(C(=O)NC3C4CC5CC(C4)CC3C5)CC2)C1 (stereo not drawn) [Example 29, Tert-butyl 1′-((2-adamantyl)carbamoyl)-1H-spiro[isoquinoline-4,4′-piperidine]-2(3H)-carboxylate] | > 7.30
O=C(NC1C2CC3CC(C2)CC1C3)N1CCC2(CC1)CNCc1ccccc12 (stereo not drawn) [Example 30, N-(2-Adamantyl)-2,3-dihydro-1H-spiro[isoquinoline-4,4′-piperidine]-1′-carboxamide] | > 7.30
CC(=O)N1Cc2ccccc2C2(CCN(C(=O)NC3C4CC5CC(C4)CC3C5)CC2)C1 (stereo not drawn) [Example 31, 2-Acetyl-N-(2-adamantyl)-2,3-dihydro-1H-spiro[isoquinoline-4,4′-piperidine]-1′-carboxamide] | > 7.30
O=C(OC1C2CC3CC(C2)CC1C3)N1CCC2(CC1)OCc1ccccc12 (stereo not drawn) [Example 84, 2-Adamantyl 3H-spiro[isobenzofuran-1,4′-piperidine]-1′-carboxylate] | > 7.30
O=C(O)CCCC(=O)N1Cc2ccccc2C2(CCN(C(=O)NC3C4CC5CC(C4)CC3C5)CC2)C1 (stereo not drawn) [Example 95, 5-(1′(2-Adamantylcarbamoyl)-1H-spiro[isoquinoline-4,4′-piperidine]-2(3H)-yl)-5-oxopentanoic acid] | 6.00 to 7.30
CC(C)(C)OC(=O)N1CC2(CCN(C(=O)OC3C4CC5CC(C4)CC3C5)CC2)c2ccccc21 (stereo not drawn) [Example 128, 1-Tert-butyl 1′-(2-adamantyl)spiro[indoline-3,4′-piperidine]-1,1′-dicarboxylate] | 6.00 to 7.30
CC(C)(C)OC(=O)N1CC2(CCN(C(=O)OC3C4CC5CC(C4)CC3C5)CC2)c2cc(F)ccc21 (stereo not drawn) [Example 129, 1-Tert-butyl 1′-(2-adamantyl) 5-fluorospiro[indoline-3,4′-piperidine]-1,1′-dicarboxylate] | 6.00 to 7.30
Cc1ccc2c(c1)C1(CCN(C(=O)OC3C4CC5CC(C4)CC3C5)CC1)CN2C(=O)OC(C)(C)C (stereo not drawn) [Example 130, 1-Tert-butyl 1′-(2-adamantyl) 5-methylspiro[indoline-3,4′-piperidine]-1,1′-dicarboxylate] | 6.00 to 7.30
(±)-2-(1′-(Cyclohexylcarbamoyl)spiro[chroman-2,4′-piperidine]-4-yl)acetic acid [Example 14] | 6.00 to 7.30
(±)-Ethyl 1′-(cyclohexylcarbamoyl)-2,3-dihydrospiro[indene-1,4′-piperidine]-3-carboxylate [Example 16] | > 7.30
(±)-Ethyl 1′-(cyclohexylcarbamoyl)spiro[chroman-2,4′-piperidine]-4-carboxylate [Example 17] | 6.00 to 7.30

Reference: US8927715B2, “Inhibitors of 11β-hydroxysteroid dehydrogenase type 1” (Vitae Pharmaceuticals, Inc., priority 2006, dated 2015)
